# Source: the SangsterLogP compilation
# Details: not given
row,Compound,logP
1,CNCCN(C)C,-0.2
2,NS(=O)(=O)Cc1ccccc1,0.13
3,COc1ccc([N+](=O)[O-])cn1,1.55
4,C1=C(c2ccccc2)CCCC1,4.53
5,CCCOP(OCCC)OCCC,2.26
6,COc1cccc(N(C)C(=S)Oc2cccc(C(C)(C)C)c2)n1,5.18
7,S=C(N/N=C/c1ccco1)Nc1ccccc1,3.13
8,CC(C)(C)NC(=O)[C@H]1CC[C@H]2[C@@H]3CC[C@H]4NC(=O)C=C[C@]4(C)[C@H]3CC[C@]12C,3.03
9,CON=C(Cc1cccnc1)c1ccc(Cl)cc1Cl,2.51
10,NC(=O)Nc1nc(-c2ccccc2)no1,1.76
11,O=[N+]([O-])c1cc2[nH]c(C(F)(F)F)nc2cc1Cl,3.21
12,O=CN1CCCC1,-0.32
13,CCC(C)C(C)(C)C(N)=O (configuration not stated),1.81
14,CC(C)I,2.89
15,COC(=O)C1=CCCN(C)C1,0.35
16,O=C1CCc2cccc3c2N1CC3,1.6
17,Cc1cccc(CC(=O)O)c1Nc1c(Cl)cccc1Cl,4.93
18,CNC(=O)c1ccoc1,0.34
19,CNC1=CC(=O)C(NC)=CC1=O,0.34
20,CC1(C)CNC(=NN=C(C=Cc2ccc(C(F)(F)F)cc2)C=Cc2ccc(C(F)(F)F)cc2)NC1,2.31
21,CCOC(=O)CCCOc1ccc(Cl)cc1C,4.26
22,Cn1c(N)nc2ccccc21,0.95
23,c1ccc2c(c1)CCCC2,3.49
24,N#CC(CCc1ccc(Cl)cc1)(Cn1cncn1)c1ccccc1 (configuration not stated),3.23
25,CCn1cnc2c(NC(C)=O)ncnc21,-0.41
26,CCNC(=O)c1ccco1,0.61

row,Compound,logP
1,CCC(C(N)=O)(C(N)=O)c1ccccc1,0.13
2,Nc1ccc([C@@H](O)[C@@H](CO)NC(=O)C(Cl)Cl)cc1,-0.29
3,O/N=C/c1ccccc1,1.85
4,CCCn1cnc2c(NC(C)=O)ncnc21,0.09
5,CC(=O)C(C)(C)C,1.2
6,OCCCF,-0.28
7,O=C(CCn1ccnc1[N+](=O)[O-])NCCO,-1.08
8,O/N=C\c1ccc(F)cc1,2.03
9,CCn1cc(C)c(=O)[nH]c1=O,-0.15
10,COc1ccc2cc([C@H](C)C(=O)OCC(=O)N(CCO)CCO)ccc2c1,1.7
11,C=CCC,2.4
12,C1=c2ccc3cccc4ccc(c2c43)CC1,4.92
13,Cc1[nH]oc(=O)c1/N=N/c1ccccc1Cl,2.6
14,ON=Cc1nnc(-c2ccccc2)o1,2.03
15,CCCSP(=S)(OCC)Oc1ccc(Cl)cc1Cl (configuration not stated),4.92
16,N#Cc1ccccc1N,1.4
17,CCCC(=O)OC,1.29
18,N#CCC#N,-0.5
19,CCCCc1c(C)[nH]c(N(C)C)nc1=O,1.9
20,ICCCI,3.02
21,CC(O)Cc1ccccc1 (configuration not stated),1.97
22,CCNC(=O)C1C2C=CC(C2)C1C(=O)NCC (configuration not stated),0.99
23,Cn1c(N)nc2cc(Cl)ccc21,2.09
24,O=[N+]([O-])c1ccco1,0.66
25,O=[N+]([O-])c1ccc(Nc2ccccc2)cc1,3.74
26,CC(=O)C1CC1,0.49

row,Compound,logP
1,c1ccc2c(c1)Cc1ccccc1S2,3.86
2,O=[N+]([O-])c1ccccc1SSc1ccccc1[N+](=O)[O-],3.37
3,O=C(OCCc1ccccc1)c1ccccc1,4.01
4,CC(=O)COc1ccccc1,1.04
5,C=C(C)CN(CC)c1c([N+](=O)[O-])cc(C(F)(F)F)cc1[N+](=O)[O-],5.11
6,CCC12CCN(C)C(Cc3ccc(O)cc31)C2C (configuration not stated),-1.14
7,CCOc1ccccc1OCC,2.42
8,CC(C)Nc1nc(N)nc(SC(F)F)n1,2.68
9,O=C1C=CC(=O)N1c1ccccc1,1.09
10,CCCSP(=O)(OCC)Oc1cnn(-c2ccc(Cl)cc2)c1 (configuration not stated),3.77
11,N#Cc1cccc(C=O)c1,1.18
12,Cc1c(COC(=O)[C@@H]2[C@H](/C=C(\Cl)C(F)(F)F)C2(C)C)cccc1-c1ccccc1,6
13,CC(C)CN(C)CC(C)C,2.34
14,CN(C(=O)COc1nc2ccccc2s1)c1ccccc1,3.23
15,FC(F)(F)CCc1ccccc1,3.31
16,C/C=C\C=C\C,2.8
17,CS(=O)(=O)ON1C(=O)c2ccc([N+](=O)[O-])cc2C1=O,1.71
18,CC(=O)N(C)Nc1ccccc1,1.31
19,CN(C)c1ccc2c(c1)C(=O)N(O)C2=O,1.27
20,N#CC1CC1,0.29
21,CCc1cccc(CC)c1NC(=O)OC,1.99
22,CCOC(=O)C(F)F,0.87
23,O=[N+]([O-])c1ccc(/C=C/c2ncc[nH]2)o1,1.32
24,O=[N+]([O-])c1ccc(O)c(O)c1,1.66
25,O=C1C=C(N2CC2)C(=O)C=C1N1CC1,0.18
26,COC(=O)CC#N,-0.47

row,Compound,logP
1,CNC=O,-0.97
2,CN1CCCC1=O,-0.54
3,CC(C)=NOCCOC(=O)[C@@H](C)Oc1ccc(Oc2cnc3cc(Cl)ccc3n2)cc1,4.6
4,CCCOC,1.21
5,COc1cc(C)c2c(c1OC)C1CCC(NCc3ccccc3)C(=O)CC1C(NC(C)=O)CC2 (configuration not stated),3.58
6,N#Cc1ccncc1C#N,0.24
7,CN(C)C(=O)SCCCCOc1ccccc1,3.28
8,N#Cc1cccc(C#N)c1,0.8
9,O=C1C(Cl)C(CCl)CN1c1cccc(C(F)(F)F)c1 (configuration not stated),3.36
10,CC1(C)N=C(N)N=C(N)N1c1cccc(OCCOc2ccccc2)c1,-0.84
11,CC1=C(/C=C/C(C)=C/C=C/C(C)=C/CO)C(C)(C)CCC1,5.68
12,COc1ccc2cc(C(C)C(=O)OCC(=O)N(C)CC(N)=O)ccc2c1 (configuration not stated),1.37
13,COC(=O)c1cc(S(N)(=O)=O)ccc1SCCCO,0.78
14,CCCOCCN(C(=O)CCl)c1c(CC)cccc1CC,4.08
15,C1CCCCCC1,4
16,O=C(O)COc1ccc(N2Cc3ccccc3C2=O)cc1,3.58
17,CCOC(=O)Nc1cccc(OC(=O)Nc2ccccc2)c1,3.39
18,CNC(=O)c1ccco1,0.23
19,Cn1c(=O)sc2ccccc21,1.98
20,CN(C)N=Nc1nccs1,1.27
21,Cc1ccno1,0.45
22,CC(=O)Nc1ncnc2c1ncn2C,-0.41
23,CCN(CC)c1c([N+](=O)[O-])cc(C(F)(F)F)c(N)c1[N+](=O)[O-],4.3

# Same assay, conditions: pH 1.0
row,Compound,logD
1,O=C(O)C1CC1,0.63
2,N#CCC(=O)O,-0.76
3,Cn1nnnc1SCC1=C(C(=O)O)N2C(=O)[C@@H](NC(=O)[C@H](O)c3ccccc3)[C@H]2SC1,0.25
4,CC(C)CC#N,1.07
5,O=C(O)Cc1ccc2ccccc2c1,2.81
6,O=C(O)c1c(Cl)cccc1Cl,2.23
7,O=C(O)CCCl,0.41

# Same assay, conditions: pH 4.0
row,Compound,logD
1,O=[N+]([O-])c1ccc(NN=C(C(F)(F)F)C(F)(F)F)c(C(F)(F)F)c1,4.6
2,FC(F)(F)C(=NNc1ccc(Cl)c(Cl)c1)C(F)(F)F,5.1

# Same assay, conditions: pH 5.0
row,Compound,logD
1,CCOC(=O)CCl,0.94

# Same assay, conditions: pH 7.0
row,Compound,logD
1,COc1cccc2c1C(=O)c1c(O)c3c(c(O)c1C2=O)CC(O)(C(=O)CO)CC3OC1CC(O)C(O)C(C)O1 (configuration not stated),1.75
2,CCCCN(CC)c1c([N+](=O)[O-])cc(C(F)(F)F)cc1[N+](=O)[O-],5.29
3,Nc1nc(=O)n([C@H]2CC[C@@H](CO)O2)cc1I,-0.31
4,COc1c2c(cc3c1-c1ccc(OC)c(=O)cc1C(NC(C)=O)CC3)OCO2 (configuration not stated),1.6
5,Cc1cn([C@@H]2O[C@H](CO)[C@@H](O)[C@H]2O)c(=O)nc1N,-2.01
6,CCC1COC(Cn2cncn2)(c2ccc(-n3cncn3)cc2Cl)O1 (configuration not stated),1.28

# Same assay, conditions: pH 7.4
row,Compound,logD
1,O=[N+]([O-])c1ncn(CC(F)(F)CO)n1,-0.21
2,Nc1ccc2c(n1)[nH]c1ccccc12,2.6
3,CN1C(=O)CN=C(c2ccccc2F)c2c(F)cccc21,2.41
4,Cn1cc2ccc([N+](=O)[O-])cc2n1,1.76
5,Cc1ccc(C=Cc2ncc([N+](=O)[O-])n2C)cc1,1.64
6,COC(=O)c1ccc(-c2ncc([N+](=O)[O-])n2C)cc1,1.63
7,Nc1ccc2nc3ccccn3c2n1,1.38
8,COC(=S)NCCn1c([N+](=O)[O-])cnc1C,1.09
9,c1ccc(C23CCCN2CCO3)cc1 (configuration not stated),1.04
10,N#Cc1cccc2cccnc12,1.39
11,Cc1ccnc2ccccc12,2.61
12,Cc1cc(=O)[nH]c(=O)[nH]1,-0.77

# Same assay, conditions: pH 9.0
row,Compound,logD
1,Cc1c[nH]cn1,0.23
2,NC(=O)c1nc[nH]c1N,-1.1

# Same assay, conditions: pH 13.0
row,Compound,logD
1,N=C(N)c1ccc(N)cc1,-0.49
2,NCCN1CCCC1,0.08
3,CN1CCCNCC1,-0.4
4,CN(C1CCCCC1)C1CCCCC1,3.71
5,c1ccc(N2CCNCC2)cc1,1.11
6,C1CCC2=NCCCN2CC1,1.38
7,CC1(C)CCCC(C)(C)N1,2.15
8,Cc1cc(C)c(N(C)C)c(C)c1,4.44
9,OCCNCc1ccccc1,0.79
10,COc1ccc(Oc2cnc(N)nc2N)c(OC)c1OC,0.9

# Details: not given
# Remark: another data set of the same source
row,Compound,logP
1,O=C1NC(=O)[C@@]2(CCOc3ccc(F)cc32)N1,0.78
2,OCCN1CCN(C2CC(c3ccc(F)cc3)c3ccccc32)CC1 (configuration not stated),2.95
3,c1ccc(Cn2ncnn2)cc1,1.03
4,CCN1CCC[C@H]1CNC(=O)c1cc(I)ccc1OC,3.23
5,O=C(O)Cc1nn(Cc2ccc(Br)cc2F)c(=O)c2ccccc12,2.68
6,CC(C)=CC1C(C(=O)OCc2ccc(C)cc2C)C1(C)C (configuration not stated),4.5
7,CC1(C)CN(CCN2CCN(c3cccc(Cl)c3)C2=O)C1,3.91
8,C#CCNS(=O)(=O)c1ccc(OC)c(C(=O)NCC2CCCN2CC)c1 (configuration not stated),2.42
9,CCN1CCCC1CNC(=O)c1cc(NS(N)(=O)=O)c(Cl)cc1OC (configuration not stated),2.66
10,O=C1NCN(c2ccccc2)C12CCN(CCCC(c1ccc(F)cc1)c1ccc(F)cc1)CC2,5.86
11,FC(F)(F)C(=NOCC1OCCO1)c1ccc(Cl)cc1,3.9
12,CCCN1CCCC1CNC(=O)c1cc(S(N)(=O)=O)ccc1OC (configuration not stated),2.06
13,C#CC(C)(C)NS(=O)(=O)c1ccc(OC)c(C(=O)NCC2CCCN2CC)c1 (configuration not stated),2.8
14,c1ccc(Cn2cccc2)cc1,2.71
15,OC1(c2ccc(Cl)cc2)CCN(CCCC2(c3ccc(F)cc3)OCCO2)CC1,3.84
16,CCN1CCCC1CNC(=O)c1cc(NS(N)(=O)=O)ccc1OC (configuration not stated),2.02
